Results from patent US20190290656A1, “PT(IV) PRODRUGS” (YISSUM RESEARCH DEVELOPMENT COMPANY OF THE HEBREW …, priority 2015, published 2019).
Where two headings read alike, the source gives them in different places.

Key:
[1] = octanol/water partition, shake-flask method; format: physicochemical
Procedure: To quantify the hydrophobicity of the platinum complexes, partition coefficients (log P) values for octanol/water partition were measured using the shake-flask method.

MCF-7 cells = assay: MTT cytotoxicity assay, MCF-7; format: cell-based, human; details: MCF-7, 72 h exposure, MTT; read-out: IC50 (median growth inhibitory concentration)
Procedure: (§1) Cisplatin (CDDP) and oxaliplatin (OXP) were dissolved just before the experiment in a 0.9% NaCl solution.
(§2) Human prostate adenocarcinoma (PC3) cells were obtained from European Collection of Cell Cultures (ECACC, Salisbury, UK). Human ovarian cancer cell lines A2780 and its cisplatin resistant variant, A2780cisR, were kindly provided by Prof.
(§3) Triplicate cultures were established for each treatment.

A375 cells = assay: MTT cytotoxicity assay, A375; format: cell-based, human
Procedure: (§4) Cisplatin (CDDP) and oxaliplatin (OXP) were dissolved just before the experiment in a 0.9% NaCl solution. […]
(§5) Cancer Res. 1988, 48, 589-601]. […] Triplicate cultures were established for each treatment.
(§6) MTT assay. […] Triplicate cultures were established for each treatment.
(§7) The two dimers, 3a and 3b, as well as compounds 1a and 2a were screened against six human cancer cell lines representative of lung (H157), colon (HCT-15), cervical (A431), ovarian (2008) and pancreatic (PSN1) cancers, along with melanoma (A375). Cytotoxicity was evaluated by means of the MTT test after 72 h of treatment and the in vitro antitumor potential of newly synthesized derivatives was compared to that of the reference metallo-drugs CDDP and OXP.

A549 cells = assay: MTT cytotoxicity assay, A549; format: cell-based, human; details: A549, 72 h exposure, MTT; read-out: IC50 (median growth inhibitory concentration)
Procedure: as §1, §2, §3

A2780 cells = assay: MTT cytotoxicity assay, A2780; format: cell-based, human; details: A2780, 72 h exposure, MTT; read-out: IC50 (median growth inhibitory concentration)
Procedure: (§8) Platinum(IV) complexes were dissolved in DMSO to stock solutions of 1 mg/mL just before the experiment, and a calculated amount of drug solution was added to the cell growth medium to a final solvent concentration of 0.5%, which had no discernible effect on cell killing. Cisplatin (CDDP) and oxaliplatin (OXP) were dissolved just before the experiment in a 0.9% NaCl solution.
as §2, §5

PC3 cells = assay: MTT cytotoxicity assay, PC3; format: cell-based, human; details: PC3, 72 h exposure, read-out: IC50 (median growth inhibitory concentration)
Procedure: as §1, §2, §3

nine cancer cell lines = assay: MTT cytotoxicity, over the nine cancer cell lines
A2780cisR cells = assay: MTT cytotoxicity assay, A2780cisR (cisplatin resistant); format: cell-based, human
Procedure: as §8, §2, §5

A498 cells = assay: MTT cytotoxicity assay, A498; format: cell-based, human; details: A498, 72 h exposure, read-out: IC50 (median growth inhibitory concentration)
Procedure: as §8, §2, §5

HCT-15 cells = assay: MTT cytotoxicity assay, HCT-15; format: cell-based, human
Procedure: as §4, §5, §6, §7

BxPC3 cells = assay: MTT cytotoxicity assay, BxPC3; format: cell-based, human; details: BxPC3, 72 h exposure, MTT; read-out: IC50 (median growth inhibitory concentration)
[2] = tested on: human embryonic kidney HEK293 cells; assay: MTT cytotoxicity against non-tumor cells; format: cell-based
Procedure: as §6
The cytotoxic activity of derivatives 3a and 3b was also evaluated against non-tumor cells, namely human embryonic kidney HEK293 cells (Table 7). Both compounds 3a and 3b were more cytotoxic than CDDP.

HCT-15 spheroids = assay: 3D spheroid APH assay, HCT-15; format: cell-based, human; details: HCT-15 spheroids, 72 h, APH test
Source text: (§9) Acid phosphatase (APH) assay. A modified APH assay, which is based on quantification of cytosolic acid phosphatase activity, was used for determining cell viability in spheroids. […] Triplicate cultures were established for each treatment. […] Evaluation was based on means from at least four independent experiments.
(§10) In order to improve the predictive capacity of the in vitro assays, we tested the activity in three three-dimensional (3D) cell cultures; human colon cancer cells, HCT-15, and human pancreatic cancer cells, KRAS wild type BxPC3 cells KRAS mutated PSN-1 cells. The cancer spheroids were treated with 3a and 3b for 72 h and the cell viability was assessed by means of the APH assay (Table 6). For comparison purposes, the cytotoxicities of CDDP and OXP were evaluated under the same experimental conditions.

BxPC3 spheroids = assay: 3D spheroid APH assay, BxPC3; format: cell-based, human; details: 72 h, APH test
Source text: as §9, §10

A431 cells = assay: MTT cytotoxicity assay, A431; format: cell-based, human; details: A431, 72 h
Procedure: as §6, §7

PSN-1 spheroids = assay: 3D spheroid APH assay, PSN-1; format: cell-based, human; details: PSN-1 spheroids, 72 h, APH test
Source text: as §9, §10

PSN1 cells = assay: MTT cytotoxicity assay, PSN1; format: cell-based, human; details: PSN1, 72 h, MTT
Procedure: as §6, §7

2008 cells = assay: MTT cytotoxicity assay, 2008; format: cell-based, human; details: 2008, 72 h, MTT
Procedure: as §6, §7

H157 cells = assay: MTT cytotoxicity assay, H157; format: cell-based, human; details: H157, 72 h
Procedure: as §6, §7

CCCC(CCC)C(=O)[O][Pt]([NH2])([NH2])([Cl])([Cl])[O]C(C)=O [II, Pt(NH3)2Cl2(C2H3O2)(C8H15O2)]]
Log P [1]: 0.17 ± 0.02 | IC50 (MCF-7 cells): 5.74 ± 1.1 µM | IC50 (A375 cells; A375, 72 h exposure, MTT (Table 1), read-out: IC50 (median growth inhibitory concentration)): 2.17 ± 0.53 µM | IC50 (A549 cells): 8.36 ± 1.14 µM | IC50 (A2780 cells): 1.02 ± 0.6 µM | IC50 (PC3 cells): 7.32 ± 1.24 µM | fold reduction in potency compared with ctc-[Pt(NH3)2(VPA)2Cl2] (nine cancer cell lines; range over cell lines): 1.7-7.9 fold | IC50 (nine cancer cell lines; read-out: average IC50 values for the nine cancer cell lines, mean over nine cell lines, 72 h MTT): 4.48 µM | IC50 (A2780cisR cells; A2780cisR, 72 h exposure, MTT, read-out: IC50 (median growth inhibitory concentration)): 1.62 ± 0.3 µM | resistance factor (A2780cisR cells; ratio IC50 resistant (A2780cisR) / sensitive (A2780) cells): 1.6 | IC50 (A498 cells): 4.21 ± 0.95 µM | IC50 (HCT-15 cells; HCT-15, 72 h exposure, MTT (Table 1), read-out: IC50 (median growth inhibitory concentration)): 6.36 ± 1.03 µM | IC50 (BxPC3 cells): 3.54 ± 0.66 µM

Cc1c(C)c2c3c4c1=CC=C[N]4[Pt+2][N]3C=CC=2.N[C@H]1CCCC[C@@H]1N [[Pt(DACH)(56Phen)], reference compound]
IC50 ([2]; HEK293 non-tumor cells, 72 h, MTT): 1.12 ± 0.87 µM | SI (selectivity index) ([2]; ratio between average IC50 of non-tumor cells and IC50 of malignant cells): 0.9 | IC50 (A375 cells; A375, 72 h, MTT (Table 5), read-out: IC50 (μM) ± S.D.): 1.12 ± 0.42 µM | IC50 (HCT-15 spheroids): 60.2 ± 2.92 µM | IC50 (BxPC3 spheroids): 100 ± 12.1 µM | IC50 (A431 cells): 0.28 ± 0.08 µM | IC50 (PSN-1 spheroids): 55.5 ± 9.75 µM | IC50 (PSN1 cells): 0.25 ± 0.08 µM | IC50 (2008 cells): 0.74 ± 0.12 µM | IC50 (HCT-15 cells; HCT-15, 72 h, MTT (Table 5), read-out: IC50 (μM) ± S.D.): 0.69 ± 0.11 µM | IC50 (H157 cells): 0.16 ± 0.01 µM
